From ChEMBL document CHEMBL1139808, “Structure-activity relationship study of novel NR2B-selective antagonists with arylamides to avoid reactive metabolites formation” (Bioorg Med Chem Lett, 2007)

What was measured:
[1] = biological target: Glutamate receptor ionotropic, NMDA 2B (Rattus norvegicus, UniProt P35439+Q00960); assay: Displacement of [3H]racemic CP-101606 from rat NR2B receptor in P2 membrane; format: cell membranes
[2] = biological target: Voltage-gated inwardly rectifying potassium channel KCNH2 (Homo sapiens, UniProt Q12809); assay: Inhibition of hERG; format: toxicity
Voltage-gated inwardly rectifying potassium channel KCNH2, sequence (Q12809 whole entry): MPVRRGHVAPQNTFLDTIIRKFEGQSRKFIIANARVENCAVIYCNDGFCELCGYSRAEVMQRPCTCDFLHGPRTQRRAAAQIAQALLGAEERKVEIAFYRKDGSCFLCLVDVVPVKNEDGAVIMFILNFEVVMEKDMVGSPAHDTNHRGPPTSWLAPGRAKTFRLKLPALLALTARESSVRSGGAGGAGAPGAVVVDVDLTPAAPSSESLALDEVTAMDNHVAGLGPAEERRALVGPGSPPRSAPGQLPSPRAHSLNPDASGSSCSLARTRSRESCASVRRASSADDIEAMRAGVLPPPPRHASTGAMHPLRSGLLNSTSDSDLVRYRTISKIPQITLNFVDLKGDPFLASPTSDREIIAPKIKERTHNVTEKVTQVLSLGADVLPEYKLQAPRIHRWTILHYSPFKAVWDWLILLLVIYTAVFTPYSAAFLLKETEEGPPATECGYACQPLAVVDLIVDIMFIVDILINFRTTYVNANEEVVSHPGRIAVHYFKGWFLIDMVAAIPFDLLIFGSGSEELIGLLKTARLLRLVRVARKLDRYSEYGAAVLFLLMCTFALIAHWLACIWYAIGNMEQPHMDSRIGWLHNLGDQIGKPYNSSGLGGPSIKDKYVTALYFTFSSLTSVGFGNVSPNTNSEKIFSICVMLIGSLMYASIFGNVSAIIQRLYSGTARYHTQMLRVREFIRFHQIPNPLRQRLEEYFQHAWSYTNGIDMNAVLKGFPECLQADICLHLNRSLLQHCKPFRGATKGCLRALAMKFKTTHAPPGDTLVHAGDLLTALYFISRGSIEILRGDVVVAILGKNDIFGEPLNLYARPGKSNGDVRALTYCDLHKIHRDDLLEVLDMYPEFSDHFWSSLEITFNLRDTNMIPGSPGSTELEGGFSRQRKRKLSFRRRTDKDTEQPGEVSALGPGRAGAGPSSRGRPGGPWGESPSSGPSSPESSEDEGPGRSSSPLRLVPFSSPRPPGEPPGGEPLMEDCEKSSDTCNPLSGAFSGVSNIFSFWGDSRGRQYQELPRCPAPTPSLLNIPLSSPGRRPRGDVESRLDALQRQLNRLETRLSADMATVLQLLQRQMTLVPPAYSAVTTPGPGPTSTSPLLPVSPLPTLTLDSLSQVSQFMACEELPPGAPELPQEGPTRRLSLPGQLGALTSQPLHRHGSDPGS

[3] = biological target: hERG (Homo sapiens, UniProt Q12809); assay: Inhibition of hERG current at 10 uM; format: toxicity
hERG, sequence (Q12809 whole entry): as above

[4] = Bioavailability in rat; format: ADME, organism-based; details: in vivo
[5] = organism: Mus musculus; assay: Analgesic activity in PSL mouse model assessed as latency to paw withdrawal; format: functional; details: read-out: MED
[6] = tested on: Rattus norvegicus; assay: Effect on haloperidol catalepsy in po dosed rat assessed as […]; format: functional; details: read-out: MED
[7] = Metabolic stability assessed as half life in human liver microsomes; format: ADME, Microsome

Glutamate receptor ionotropic, NMDA 2B, sequence (Q00960 whole entry, one chain of several): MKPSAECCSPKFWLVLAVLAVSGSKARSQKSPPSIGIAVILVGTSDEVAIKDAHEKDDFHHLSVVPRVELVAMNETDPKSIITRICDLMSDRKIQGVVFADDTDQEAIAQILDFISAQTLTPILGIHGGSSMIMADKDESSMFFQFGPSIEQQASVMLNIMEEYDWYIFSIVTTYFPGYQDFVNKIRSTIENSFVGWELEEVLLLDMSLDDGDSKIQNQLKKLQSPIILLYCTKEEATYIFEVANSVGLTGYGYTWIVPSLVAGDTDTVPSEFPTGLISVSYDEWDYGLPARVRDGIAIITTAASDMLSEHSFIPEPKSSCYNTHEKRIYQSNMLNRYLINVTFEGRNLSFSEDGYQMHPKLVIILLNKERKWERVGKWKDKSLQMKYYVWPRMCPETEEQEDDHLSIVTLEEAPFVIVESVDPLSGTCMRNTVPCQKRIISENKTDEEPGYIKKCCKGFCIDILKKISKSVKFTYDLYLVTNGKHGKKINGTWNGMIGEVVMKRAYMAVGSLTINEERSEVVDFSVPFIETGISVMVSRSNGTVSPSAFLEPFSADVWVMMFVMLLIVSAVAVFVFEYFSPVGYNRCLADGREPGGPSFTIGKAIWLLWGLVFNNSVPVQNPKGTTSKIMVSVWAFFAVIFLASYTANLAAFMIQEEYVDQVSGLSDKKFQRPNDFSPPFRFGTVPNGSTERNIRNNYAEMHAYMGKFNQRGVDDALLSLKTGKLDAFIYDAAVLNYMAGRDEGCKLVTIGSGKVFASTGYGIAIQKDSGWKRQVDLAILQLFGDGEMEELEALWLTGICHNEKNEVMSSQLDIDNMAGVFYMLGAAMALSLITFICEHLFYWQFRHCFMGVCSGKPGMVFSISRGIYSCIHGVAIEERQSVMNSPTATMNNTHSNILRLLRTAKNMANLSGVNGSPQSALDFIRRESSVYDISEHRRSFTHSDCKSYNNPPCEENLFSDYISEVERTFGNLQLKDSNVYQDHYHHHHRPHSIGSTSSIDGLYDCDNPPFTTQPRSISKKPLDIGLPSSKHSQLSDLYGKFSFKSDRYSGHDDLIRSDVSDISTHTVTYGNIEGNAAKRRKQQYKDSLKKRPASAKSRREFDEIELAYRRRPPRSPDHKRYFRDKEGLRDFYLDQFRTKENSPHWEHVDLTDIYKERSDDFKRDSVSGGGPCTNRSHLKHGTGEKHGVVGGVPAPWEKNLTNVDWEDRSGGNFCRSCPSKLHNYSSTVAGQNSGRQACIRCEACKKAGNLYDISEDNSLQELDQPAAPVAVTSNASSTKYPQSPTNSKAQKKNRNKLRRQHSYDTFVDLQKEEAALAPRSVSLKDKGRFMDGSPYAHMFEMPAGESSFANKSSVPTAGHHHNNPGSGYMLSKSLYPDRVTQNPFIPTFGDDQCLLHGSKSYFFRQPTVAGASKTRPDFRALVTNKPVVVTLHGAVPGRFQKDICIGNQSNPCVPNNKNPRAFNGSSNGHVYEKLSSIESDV

Ki [1] [µM] | Compound | other results
0.0056 | O=C(NCc1cccc(OCCc2ccccc2)c1)c1ccc(O)cc1 | –
0.0042 | O=C(NC[C@H]1CC[C@@H](CCOc2ccccc2)CC1)c1cn[nH]c1 | IC50 [2]: > 30 µM; inhibition at 10 µM [3]: 36%; bioavailability [4]: 43%; minimal effective dose [5]: 3 mg/kg
0.0068 | O=C(NC[C@H]1CC[C@@H](COc2ccccc2)CC1)c1ccc(O)cc1 | minimal effective dose [6]: 3 mg/kg; half-life [7]: 2.3 min
0.0068 | O=C(NC[C@H]1CC[C@@H](CCOc2ccccc2)CC1)c1cc[nH]c1 | –
0.0085 | O=C(NC[C@H]1CC[C@@H](CCOc2ccccc2)CC1)c1cc(F)c(O)c(F)c1 | –
0.018 | O=C1CCc2cc(C(=O)NC[C@H]3CC[C@@H](COc4ccccc4)CC3)ccc2N1 | –
0.0089 | O=C(NC[C@H]1CC[C@@H](CCOc2ccccc2)CC1)c1ccn[nH]1 | half-life [7]: 36 min
0.0037 | Nc1n[nH]cc1C(=O)NC[C@H]1CC[C@@H](CCOc2ccccc2)CC1 | half-life [7]: 59 min
0.014 | O=C(NC[C@H]1CC[C@@H](COc2ccccc2)CC1)c1cn[nH]c1 | half-life [7]: 44 min
0.0056 | O=C(NC[C@H]1CC[C@@H](CCOc2ccccc2)CC1)c1ccc(=O)[nH]n1 | –
0.011 | O=C1C=CC(C(=O)NC[C@H]2CC[C@@H](CCOc3ccccc3)CC2)NN1 (stereo partly drawn) | –
0.015 | O=C(NC[C@H]1CC[C@@H](CCOc2ccccc2)CC1)c1ccc2[nH]ncc2c1 | –
0.084 | O=C(NC[C@H]1CC[C@@H](COc2ccccc2)CC1)c1cc[nH]c1 | –
0.015 | O=C(NCc1cccc(C(=O)NCc2ccccc2)c1)c1ccc(O)cc1 | IC50 [2]: > 30 µM
0.0059 | O=C1CCc2cc(C(=O)NC[C@H]3CC[C@@H](CCOc4ccccc4)CC3)ccc2N1 | –
0.02 | O=C(NC[C@H]1CC[C@@H](CCOc2ccccc2)CC1)c1ccc(O)cc1 | –
0.012 | O=C(NC[C@H]1CC[C@@H](COc2ccccc2)CC1)c1cc(F)c(O)c(F)c1 | –

Compound | Ki [1] [µM] | other results
O=C(NC[C@H]1CC[C@@H](COc2ccccc2)CC1)c1ccn[nH]1 | > 0.1 | –
Nc1[nH]ncc1C(=O)NC[C@H]1CC[C@@H](COc2ccccc2)CC1 | > 0.1 | –
O=C1C=CC(C(=O)NC[C@H]2CC[C@@H](COc3ccccc3)CC2)NN1 (stereo partly drawn) | > 0.1 | –
Cc1n[nH]c(C)c1C(=O)NC[C@H]1CC[C@@H](COc2ccccc2)CC1 | > 0.1 | –
Cc1n[nH]c(C)c1C(=O)NC[C@H]1CC[C@@H](CCOc2ccccc2)CC1 | > 0.1 | –
O=C(NC[C@H]1CC[C@@H](COc2ccccc2)CC1)c1ccc(=O)[nH]n1 | > 0.1 | –
